Data from patent publication US8846713B2, “Fused heterocyclic compounds as phosphodiesterases (PDEs) inhibitors” (Takeda Pharmaceutical Company Limited, priority 2010, dated 2014).
Counter-ions that a name gives are not always drawn.

Target: T1, Human PDE10A enzyme (Homo sapiens, UniProt Q9Y233)
T1 construct: transfected with the full-length gene; His-tag; made in house; host or cells: Sf9 or COS-7 cells
Assay: PDE enzyme inhibition, SPA (Scintillation Proximity Assay) with [3H]cGMP
Format: biochemical
Details: [3H]cGMP substrate; for inhibition at 0.1 µM: compound 0.1 μM, read-out: Percent inhibition (0.1 μM); for inhibition at 1 µM: compound 1 μM, read-out: Percent inhibition (1 μM); for inhibition at 10 µM: compound 10 μM, read-out: Percent inhibition (10 μM)
Experimental: Human PDE10A enzyme was generated from Sf9 or COS-7 cells transfected with the full-length gene. Cloned enzyme was extracted from homogenized cell pellets. The extracted enzyme from sf9 cells was partially purified using His-tag affinity column. The enzyme was stored at −70° C. until use. PDE activity was measured using a SPA (Scintillation Proximity Assay) (GE Healthcare). To evaluate the inhibitory activity, 10 μL of serial diluted compounds were incubated with 20 μL of PDE enzyme in assay buffer (50 mM HEPES-NaOH, 8.3 mM MgCl2, 1.7 mM EGTA, 0.1% BSA (pH 7.4)) for 30 min. at room temperature. Final concentration of DMSO in the assay was 1 percent as compounds were tested in duplicate in 96-well half-area plates (Corning). To start the reaction, 10 μL of substrate [^3H] cGMP (25 or 50 nM; enclosed in SPA kits from GE Healthcare or purchased from PerkinElmer, respectively) was added for a final assay volume of 40 μL. After 60 min incubation at room temperature, yttrium SPA beads containing Zinc sulphate were added (20 μL at 6 mg/mL) to terminate the PDE reaction. After being settled for 60 min, assay plates were counted in a scintillation counter (PerkinElmer) to allow calculation of inhibition rate. Inhibition rate was calculated on the basis of 0% control wells with DMSO and 100% control wells without enzyme.

T1 sequence (Q9Y233 267-1055): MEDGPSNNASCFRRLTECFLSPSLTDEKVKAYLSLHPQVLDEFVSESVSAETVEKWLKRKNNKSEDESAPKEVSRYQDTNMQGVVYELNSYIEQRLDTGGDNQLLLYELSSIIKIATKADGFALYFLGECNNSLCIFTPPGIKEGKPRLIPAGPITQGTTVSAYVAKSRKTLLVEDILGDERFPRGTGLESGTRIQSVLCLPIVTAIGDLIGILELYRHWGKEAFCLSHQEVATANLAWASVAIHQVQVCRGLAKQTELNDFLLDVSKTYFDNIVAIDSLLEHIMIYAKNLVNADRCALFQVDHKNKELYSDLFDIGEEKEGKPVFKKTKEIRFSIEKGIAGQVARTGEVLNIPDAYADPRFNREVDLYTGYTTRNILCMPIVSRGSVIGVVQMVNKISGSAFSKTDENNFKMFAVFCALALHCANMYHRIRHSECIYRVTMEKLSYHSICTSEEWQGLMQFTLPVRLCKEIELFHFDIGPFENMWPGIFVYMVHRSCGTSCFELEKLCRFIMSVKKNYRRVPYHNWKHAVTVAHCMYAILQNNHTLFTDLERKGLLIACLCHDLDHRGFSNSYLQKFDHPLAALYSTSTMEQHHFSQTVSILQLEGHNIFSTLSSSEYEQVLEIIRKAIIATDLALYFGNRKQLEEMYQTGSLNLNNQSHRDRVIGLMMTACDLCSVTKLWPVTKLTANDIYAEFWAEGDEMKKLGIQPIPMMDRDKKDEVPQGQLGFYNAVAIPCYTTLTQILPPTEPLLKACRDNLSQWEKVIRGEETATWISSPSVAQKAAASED

Row | Compound | inhibition at 0.1 µM | inhibition at 1 µM | inhibition at 10 µM
1 | Cn1c(=O)n(-c2ccc(N3CCn4c3nc3ccccc34)cc2)c2ncccc21 [Example 3, 3-[4-(2,3-dihydro-1H-imidazo[1,2-a]benzimidazol-1-yl)phenyl]-1-methyl-1,3-dihydro-2H-imidazo[4,5-b]pyridin-2-one] | 99% |  | 
2 | Cc1ccnc2c1n(C)c(=O)n2-c1ccc(Oc2nc3cccnc3n2C)cc1 [Example 135, 1,7-dimethyl-3-{4-[(3-methyl-3H-imidazo[4,5-b]pyridin-2-yl)oxy]phenyl}-1,3-dihydro-2H-imidazo[4,5-b]pyridin-2-one] |  | 94% | 99%
3 | CCn1c(=O)n(-c2ccc(-n3ncc4cccnc43)cc2)c2ncccc21 [Example 12, 1-Ethyl-3-[4-(1H-pyrazolo[3,4-b]pyridin-1-yl)phenyl]-1,3-dihydro-2H-imidazo[4,5-b]pyridin-2-one] |  | 93% | 99%
4 | CC1(C)C(=O)N(c2ccc(Oc3cn4ccccc4n3)cc2)c2ncccc21 [Example 123, 1-[4-(imidazo[1,2-a]pyridin-2-yloxy)phenyl]-3,3-dimethyl-1,3-dihydro-2H-pyrrolo[2,3-b]pyridin-2-one] |  | 96% | 101%
5 | CCn1c(=O)n(-c2ccc(Oc3nc4cccnc4n3C)cc2)c2ncc(F)cc21 [Example 133, 1-ethyl-6-fluoro-3-{4-[(3-methyl-3H-imidazo[4,5-b]pyridin-2-yl)oxy]phenyl}-1,3-dihydro-2H-imidazo[4,5-b]pyridin-2-one] |  | 104% | 101%
6 | CCn1c(=O)n(-c2ccc(Oc3nc4cccnc4n3C)cc2)c2ncc(Cl)cc21 [Example 107, 6-chloro-1-ethyl-3-{4-[(3-methyl-3H-imidazo[4,5-b]pyridin-2-yl)oxy]phenyl}-1,3-dihydro-2H-imidazo[4,5-b]pyridin-2-one] |  | 103% | 102%
7 | CCCn1c(=O)n(-c2ccc(Oc3nc4cccnc4n3C)cc2)c2ncccc21 [Example 97, 3-{4-[(3-methyl-3H-imidazo[4,5-b]pyridin-2-yl)oxy]phenyl}-1-propyl-1,3-dihydro-2H-imidazo[4,5-b]pyridin-2-one] |  | 97% | 98%
8 | CC(C)n1c(=O)n(-c2ccc(Oc3nc4cccnc4n3C)cc2)c2ncc(Cl)cc21 [Example 126, 6-chloro-1-(1-methylethyl)-3-{4-[(3-methyl-3H-imidazo[4,5-b]pyridin-2-yl)oxy]phenyl}-1,3-dihydro-2H-imidazo[4,5-b]pyridin-2-one] |  | 98% | 100%
9 | CCn1c(=O)n(-c2ccc3c(c2)CCN3c2nc3cccnc3[nH]2)c2ncccc21 [Example 71, 1-ethyl-3-[1-(3H-imidazo[4,5-b]pyridin-2-yl)-2,3-dihydro-1H-indol-5-yl]-1,3-dihydro-2H-imidazo[4,5-b]pyridin-2-one] |  | 99% | 97%
10 | CCn1c(=O)n(-c2ccc(Oc3nc4cccnc4[nH]3)cc2)c2ncccc21 [Example 75, 1-ethyl-3-[4-(3H-imidazo[4,5-b]pyridin-2-yloxy)phenyl]-1,3-dihydro-2H-imidazo[4,5-b]pyridin-2-one] |  | 98% | 101%
11 | CCn1c(=O)n(-c2ccc3c(c2)CCN3c2nc3ccccc3[nH]2)c2ncccc21 [Example 13, 3-[1-(1H-benzimidazol-2-yl)-2,3-dihydro-1H-indol-5-yl]-1-ethyl-1,3-dihydro-2H-imidazo[4,5-b]pyridin-2-one] |  | 100% | 101%
12 | Cn1c(Oc2ccc(N3C(=O)C(C)(C)c4cccnc43)cc2)nc2ccccc21 [Example 102, 3,3-dimethyl-1-{4-[(1-methyl-1H-benzimidazol-2-yl)oxy]phenyl}-1,3-dihydro-2H-pyrrolo[2,3-b]pyridin-2-one] |  | 99% | 106%
13 | CCn1c(=O)n(-c2ccc(Oc3nc4cccnc4n3C)cc2)c2nccc(CO)c21 [Example 138, 1-ethyl-7-(hydroxymethyl)-3-{4-[(3-methyl-3H-imidazo[4,5-b]pyridin-2-yl)oxy]phenyl}-1,3-dihydro-2H-imidazo[4,5-b]pyridin-2-one] |  | 93% | 105%
14 | O=c1[nH]c2cccnc2n1-c1ccc(Nc2nc3ccccc3o2)cc1 [Example 1, 3-[4-(1,3-benzoxazol-2-ylamino)phenyl]-1,3-dihydro-2H-imidazo[4,5-b]pyridin-2-one] |  | 98% | 100%
15 | CCn1c(=O)n(-c2ccc(Oc3nc4ccccc4[nH]3)cc2)c2nccc(C)c21 [Example 64, 3-[4-(1H-benzimidazol-2-yloxy)phenyl]-1-ethyl-7-methyl-1,3-dihydro-2H-imidazo[4,5-b]pyridin-2-one dihydrochloride] |  | 100% | 101%
16 | CCn1c(=O)n(-c2ccc(Oc3nc4ccccc4n3C)cc2)c2ncc(C#N)cc21 [Example 109, 1-ethyl-3-{4-[(1-methyl-1H-benzimidazol-2-yl)oxy]phenyl}-2-oxo-2,3-dihydro-1H-imidazo[4,5-b]pyridine-6-carbonitrile] |  | 99% | 102%
17 | CCn1c(=O)n(-c2ccc(Oc3nc4ccccc4n3CCO)cc2)c2ncccc21 [Example 39, 1-ethyl-3-(4-{[1-(2-hydroxyethyl)-1H-benzimidazol-2-yl]oxy}phenyl)-1,3-dihydro-2H-imidazo[4,5-b]pyridin-2-one] |  | 100% | 101%
18 | Cn1c(Oc2ccc(-n3c(=O)n(C(F)F)c4cccnc43)cc2)nc2cccnc21 [Example 101] |  | 101% | 99%
19 | Cn1c(Oc2ccc(-n3c(=O)n(C(F)F)c4cccnc43)cc2)nc2ccccc21 [Example 100, 1-(difluoromethyl)-3-{4-[(1-methyl-1H-benzimidazol-2-yl)oxy]phenyl}-1,3-dihydro-2H-imidazo[4,5-b]pyridin-2-one] |  | 99% | 100%
20 | CCn1c(=O)n(-c2ccc3c(c2)CCN3c2nc3ccccc3n2C)c2ncccc21 [Example 48, 1-ethyl-3-[1-(1-methyl-1H-benzimidazol-2-yl)-2,3-dihydro-1H-indol-5-yl]-1,3-dihydro-2H-imidazo[4,5-b]pyridin-2-one] |  | 96% | 100%
21 | CCn1c(=O)n(-c2ccc(Oc3nc4ccccc4[nH]3)cc2)c2ncccc21 [Example 8, 3-[4-(1H-benzimidazol-2-yloxy)phenyl]-1-ethyl-1,3-dihydro-2H-imidazo[4,5-b]pyridin-2-one hydrochloride] | 98% |  | 
22 | CCn1c(=O)n(-c2ccc(Oc3nc4cccnc4n3C)cc2)c2c1c(C)cc[n+]2[O-] [Example 136, 1-ethyl-7-methyl-3-{4-[(3-methyl-3H-imidazo[4,5-b]pyridin-2-yl)oxy]phenyl}-1,3-dihydro-2H-imidazo[4,5-b]pyridin-2-one 4-oxide] |  | 81% | 98%
23 | CCn1c(=O)n(-c2ccc(Oc3nc4ccncc4[nH]3)cc2)c2ncccc21 [Example 115, 1-ethyl-3-[4-(3H-imidazo[4,5-c]pyridin-2-yloxy)phenyl]-1,3-dihydro-2H-imidazo[4,5-b]pyridin-2-one] |  | 100% | 97%
